Results from patent US20070123462A1, “Effects of tissue transglutaminase on beta-amyloid-induced apoptosis” (Cornell Research Foundation, Inc., priority 2005, published 2007).

Tests used:
TGase [1] = test: TGase expression and level in SH-SY5Y cells and cell fractions (immunoblot); format: cell-based, human
Procedure: To induce differentiation, human SH-SY5Y cells were cultured in phenol red-free, low serum media with 20 μM all-trans-retinoic acid (RA; Sigma) every other day for 6 days. When assaying cell viability, the cells were plated in 96-well dishes at a seeding density of approximately 5×10^3 cells per well, differentiated with 20 μM RA, and then treated with either media alone, 25 μM monodansyl cadaverine (MDC), β-amyloid1-42 (2.5, 5, and 10 μM) (HPLC-purified from American Peptide, Sunnyvale, Calif.), or with 25 μM MDC and different concentrations of β-amyloid1-42. Typically, β-amyloid1-42 was reconstituted in […] and then further diluted into cell culture media, using conditions that have been reported to give rise primarily to β-amyloid oligomers and large aggregates rather than fibrils (Dahlgren et al., J. Biol. Chem. 277:32046-32053 (2002); Stine et al., J. Biol. Chem. 278:11612-11622 (2003), which are hereby incorporated by reference in their entirety). However, in some cases, β-amyloid1-42 was first dissolved in 100% hexafluoroisopropanolol to ensure the elimination of any preexisting aggregates ((Dahlgren et al., J. Biol. Chem. 277:32046-32053 (2002); Stine et al., J. Biol. Chem. 278:11612-11622 (2003), which are hereby incorporated by reference in their entirety) and then this solvent was removed by evaporation prior to reconstituting the peptide in Me2SO. […] Values for untreated controls were set at 100% viability and each treatment was assessed as a percentage of the control values (+/-SD). Each treatment was performed in triplicate and evaluated by using a one-way analysis of variation (ANOVA) with Turkey's post hoc analysis to determine differences between the groups with the a value set at 0.05. SH-SY5Y cells, treated with and without β-amyloid1-42 for 48 hours, were lysed by freeze/thawing using liquid nitrogen in a 0.25 M sucrose solution containing 1 mM dithiothreitol, 1 μg/ml aprotinin, 1 μg/ml leupeptin and 100 μM phenylmethylsulfonyl fluoride. […]

[2] = tested on: RA-differentiated SH-SY5Y cells; format: cell-based
Procedure: To induce differentiation, human SH-SY5Y cells were cultured in phenol red-free, low serum media with 20 μM all-trans-retinoic acid (RA; Sigma) every other day for 6 days. When assaying cell viability, the cells were plated in 96-well dishes at a seeding density of approximately 5×10^3 cells per well, differentiated with 20 μM RA, and then treated with either media alone, 25 μM monodansyl cadaverine (MDC), β-amyloid1-42 (2.5, 5, and 10 μM) (HPLC-purified from American Peptide, Sunnyvale, Calif.), or with 25 μM MDC and different concentrations of β-amyloid1-42. Typically, β-amyloid1-42 was reconstituted in […] and then further diluted into cell culture media, using conditions that have been reported to give rise primarily to β-amyloid oligomers and large aggregates rather than fibrils (Dahlgren et al., J. Biol. Chem. 277:32046-32053 (2002); Stine et al., J. Biol. Chem. 278:11612-11622 (2003), which are hereby incorporated by reference in their entirety). However, in some cases, β-amyloid1-42 was first dissolved in 100% hexafluoroisopropanolol to ensure the elimination of any preexisting aggregates ((Dahlgren et al., J. Biol. Chem. 277:32046-32053 (2002); Stine et al., J. Biol. Chem. 278:11612-11622 (2003), which are hereby incorporated by reference in their entirety) and then this solvent was removed by evaporation prior to reconstituting the peptide in Me2SO. Cells were incubated with the reconstituted β-amyloid1-42 for 48 hours and cell viability was then assayed by the reduction of 3-(4,5-dimethylthiazole-2-yl)-2,5-diphenyltetrazolium bromide (MTT), as previously described in Miller et al., Brain Res. 963:43-56 (2003), which is hereby incorporated by reference in its entirety. The effects of H2O2 (10-30 μM) on cell viability were assayed in a similar manner (Tamagno et al., Exp Neurol 180:144-155 (2003), which is hereby incorporated by reference in its entirety). Values for untreated controls were set at 100% viability and each treatment was assessed as a percentage of the control values (+/−SD). Each treatment was performed in triplicate and evaluated by using a one-way analysis of variation (ANOVA) with Turkey's post hoc analysis to determine differences between the groups with the a value set at 0.05.

guinea pig liver TGase = biological target: T1, guinea pig liver TGase (Cavia cutleri, UniProt P08587); test: In vitro transamidation (cross-linking) of β-amyloid1-42 by TGase, immunoblot; format: biochemical
T1 construct: 0.1 μg of guinea pig liver TGase (Sigma); purchased Sigma; host or cells: guinea pig liver
T1 sequence (P08587 2-690): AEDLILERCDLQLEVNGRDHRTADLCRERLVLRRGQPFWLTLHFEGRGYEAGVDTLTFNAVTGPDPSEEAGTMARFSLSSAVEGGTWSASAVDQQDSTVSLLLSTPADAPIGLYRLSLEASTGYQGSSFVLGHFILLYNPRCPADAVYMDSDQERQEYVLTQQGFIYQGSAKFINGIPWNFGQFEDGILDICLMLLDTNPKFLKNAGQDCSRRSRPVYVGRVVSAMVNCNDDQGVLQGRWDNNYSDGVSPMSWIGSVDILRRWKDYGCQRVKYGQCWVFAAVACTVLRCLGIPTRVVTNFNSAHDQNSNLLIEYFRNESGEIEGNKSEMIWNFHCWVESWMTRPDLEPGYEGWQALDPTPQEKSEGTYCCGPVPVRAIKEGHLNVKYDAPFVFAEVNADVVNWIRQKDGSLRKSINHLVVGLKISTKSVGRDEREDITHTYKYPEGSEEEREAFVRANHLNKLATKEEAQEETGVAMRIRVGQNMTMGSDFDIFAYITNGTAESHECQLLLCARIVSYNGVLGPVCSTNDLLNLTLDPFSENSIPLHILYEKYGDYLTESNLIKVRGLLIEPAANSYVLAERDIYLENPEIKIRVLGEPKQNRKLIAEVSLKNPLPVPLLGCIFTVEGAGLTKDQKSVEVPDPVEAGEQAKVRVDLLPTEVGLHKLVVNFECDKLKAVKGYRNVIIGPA
Procedure: FIGS. 11A-B illustrate examination of the cross-linking of β-amyloid by TGase.
The in vitro transamidation reactions were performed with one or all of the following: 1 μg of β-amyloid1-42, 0.1 μg of guinea pig liver TGase (Sigma), 500 μM CaCl2, and/or 50 μM MDC. Each reaction was performed in 50 mM Tris-HCl, pH 7.2, and incubated for 60 minutes at 37° C. The reactions were stopped by the addition of an equal volume of 20% SDS and 10 μl of Laemmeli's sample buffer and immediately boiled for 20 minutes to break up any non-covalent aggregation of β-amyloidi1-42. SDS-PAGE was performed on the samples, followed by blotting onto nitrocellulose membranes (Amersham). The membranes were immunoblotted with anti-β-amyloid antibody.

caspase-3 = test: Caspase activation immunoblot in SH-SY5Y cells; format: cell-based, human
Text: FIGS. 6A-B depict characterization of β-amyloid1-42. […] The β-amyloid was either directly reconstituted in Me2SO or was pre-treated with hexafluoroisopropanol (HFIP) and dessicated prior to reconstitution in Me2SO. […] Activated caspase-3 was detected using a rabbit polyclonal antibody from Cell Signaling (Danvers, Mass.).
FIGS. 9A-B show changes in transglutaminase activity during β-amyloid-induced apoptosis. […] Experimental conditions in FIG. 9B were similar to those described in FIG. 9A, except cells were treated with H2O2 rather than BA for 24 hours.

c-Jun kinase (JNK) = c-Jun kinase (JNK) activity in β-amyloid-treated cells; format: cell-based, human; conditions: β-amyloid1-42-treated cells
SH-SY5Y cells = test: Nuclear condensation or blebbing apoptosis assay; format: cell-based, human; conditions: 5 μM β-amyloid1-42, 48 hours; compared to control cells
Text: Construction of the pcDNA3 Myc-tagged vector used herein has been described in Tu et al., J. Biol. Chem. 278:49293-49300 (2003), which is hereby incorporated by reference in its entirety. Insertion of the TGase cDNA into the vector was accomplished by performing BamHI and EcoRI restriction-site digestion of the previously generated pTRE TGase (wild-type) vector (Antonyak et al., J. Biol. Chem. 276:33582-33587 (2001), which is hereby incorporated by reference in its entirety) to excise the cDNA encoding wild-type TGase, followed by subcloning it into the pcDNA3 Myc-tagged vector using T4 DNA ligase (Invitrogen, Carlsbad, Calif.). The pcDNA3-Myc-TGase vector was used to generate the transamidation-defective (C277V) mutant with the Quikchange site-directed mutagenesis kit (Stratagene, La Jolla, Calif.). Each TGase construct was sequenced to confirm the presence or absence of the mutation. […]
Immunofluorescence was also performed 48 hours after transient transfections with TGase constructs. […] Cells expressing the various TGase constructs were counted from three separate experiments (over 100 cells from each slide were scored) after β-amyloid1-42 treatment and the apoptotic rate was assessed relative to the percentage of apoptosis for untreated (transfected) cells. […]

TGase [3] = test: In vivo (cellular) transamidation assay with 5-(biotin-amido)-pentylamine; format: cell-based, human
Procedure: The in vivo transamidation assays were performed as previously described in Antonyak et al., J. Biol. Chem. 279:41461-41467 (2004), which is hereby incorporated by reference in its entirety. […] The membranes were then incubated with horseradish-peroxidase-conjugated streptavidin (2 mg/ml; Pierce Inc., Rockford, Ill.) (diluted 1:2000) in BBST for 2 hours at room temperature, followed by washing (three times) for 20 minutes with BBST.

[4] = H2O2 20 μM, 24 hours, RA-differentiated SH-SY5Y
[5] = 2.5-10 μM β-amyloid1-42, 48 hours

`CC1=C(/C=C/C(C)=C/C=C/C(C)=C/C(=O)O)C(C)(C)CCC1` [RA, all-trans-retinoic acid] was tested, and the TGase expression (TGase [1]; 20 μM RA, SH-SY5Y in low serum media) was “significant up-regulation”.

With `CN(C)c1cccc2c(S(=O)(=O)NCCCCCN)cccc12` [MDC, monodansyl cadaverine] the “difference in cell viability in the presence or absence of MDC, 5 μM BA” value ([2]; 25 μM MDC, 5 μM BA, 48 hours, p=0.027) was “significant difference”, the “difference in cell viability in the presence or absence of MDC, 10 μM BA” value ([2]; 25 μM MDC, 10 μM BA, 48 hours, p=0.022) was “significant difference” and the “effect of MDC on H2O2-induced cytotoxicity” value [2, 4] was “greatly enhanced cytotoxicity”. For the same compound, the “TGase-catalyzed oligomerization (transamidation) of β-amyloid1-42” value (guinea pig liver TGase; 50 μM MDC, 0.1 μg TGase, 1 μg BA, 500 μM Ca2+, 60 minutes) was “completely eliminated”, the “effect of MDC on β-amyloid1-42 activation of caspases” value (caspase-3; β-amyloid1-42-treated cells) was “did not block” and the “effect of MDC on β-amyloid1-42 stimulation of c-Jun kinase (JNK) activity” value (c-Jun kinase (JNK)) was “did not block”.

“β-amyloid1-42: most abundant and naturally occurring form of β-amyloid; HPLC-purified from American Peptide” was tested, and the “transamidation substrate for TGase in vitro” value (guinea pig liver TGase; Ca2+ levels below 1 mM) was “effective transamidation substrate”, the “apoptotic response read out by caspase-3 activation” value (caspase-3; oligomeric β-amyloid1-42, 37° C.) was “induced an apoptotic response” and the “levels of TGase in the membrane/particulate fractions” value (TGase [1]; [5]) was “dramatically increased”. The TGase expression (TGase [1]; β-amyloid1-42 48 hours, absence or presence of RA) was “no effect”, the “percentage of cells undergoing apoptosis” value (SH-SY5Y cells) was “increased” and the “production of BPA conjugates (transamidation activity) in the membrane/particulate fractions” value (TGase [3]; [5]) was “marked enhancement”.

In the case of `OO` [H2O2, hydrogen peroxide], the “reduction of cell viability” value [2, 4] is reported as 30-40%, the caspase activation (caspase-3; 30 μM H2O2, 24 hours, RA-differentiated SH-SY5Y) is reported as “resulted in caspase activation” and the cytosolic transamidation activity (TGase [3]; H2O2, 24 hours) is reported as “significant increase”.
